Experimental data: the METLIN SMRT retention time set (Domingo-Almenara et al. 2019)

Test: gradient 5% acetonitrile 3 min, to 50% in 2 min, to 85% in 15 min, held 3 min, 100 µL/min
Details: column: Zorbax Extend-C18 2.1 x 50 mm; eluents: water / acetonitrile, 0.1% formic acid
How it was run: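 Mixtures of ~100 pure standards were chromatographed on a Zorbax Extend-C18 column (2.1 × 50 mm, 1.8 μm) at 100 μL/min using water and acetonitrile, each with 0.1% formic acid. Detection used a quadrupole time-of-flight mass spectrometer in positive and negative ionization mode, and data collection spanned 3 months. Retention time was obtained from adduct peaks picked computationally and each checked manually.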
With `Cn1cc(CN2CCC(C(=O)NCCCN3CCCCC3)CC2)c2cc(Cl)ccc21` the RP-LC retention time was 586 s. With `COc1ncc(C(=O)NCc2ccc(SC)cc2)cn1` the RP-LC retention time was 747 s. In the case of `COc1ccc(-c2cc3n(n2)C(NC2CC2)CNC3=O)cc1` (stereo not given), the RP-LC retention time is reported as 683 s. In the case of `CCn1cc(S(=O)(=O)N2C[C@@H](C(N)=O)[C@H](c3n[nH]c(C)n3)C2)cn1`, the RP-LC retention time is reported as 576 s. With `CC(C)c1ccc(NC(=O)Cn2cccc2-c2nc(-c3ccc4c(c3)OCO4)no2)cc1` the RP-LC retention time was 1220 s. In the case of `Cc1ccc(-c2nnc(-c3nn(C)c4c3CN(S(=O)(=O)c3ccc(C(C)C)cc3)CC4)o2)cc1`, the RP-LC retention time is reported as 1160 s. Compound `COc1ccccc1OC(C)C(=O)Nc1ccnn1Cc1cccs1` (stereo not given) has an RP-LC retention time of 842 s. For `CC(=O)c1ccc2c3c(cccc13)C(=O)N(c1ccccc1)C2=O`, the RP-LC retention time was 811 s. With `COc1ccc(S(=O)(=O)N2CCCC(C(=O)N3CCOCC3)C2)cc1Cl` (stereo not given) the RP-LC retention time was 766 s. With `Cc1cc(F)ccc1NC(=O)C1(C)Oc2cccnc2NC1=O` (stereo not given) the RP-LC retention time was 687 s. Work on `COc1ccc(Cn2c(=O)c3sccc3n(Cc3nc(-c4ccccc4)no3)c2=O)cc1` yielded an RP-LC retention time of 1000 s. Compound `CN1C(=O)c2cc(C(=O)NCc3ccccc3F)nn2CC1(C)C(=O)NCc1ccc(F)cc1` (stereo not given) has an RP-LC retention time of 792 s. In the case of `CCn1c(C)c(-c2nc(C3CC3)no2)c(S(=O)(=O)NCC2CCCO2)c1C` (stereo not given), the RP-LC retention time is reported as 768 s. With `Cc1ccc2oc(-c3noc(C(=O)NCCN(C)C)n3)c(C)c2c1` the RP-LC retention time was 682 s. `CCc1ccc(OCc2nc(CCN(C)C(=O)Nc3cc(OC)ccc3OC)no2)cc1` gave an RP-LC retention time of 1060 s. Work on `O=C(C1CCCO1)N1CCN(c2nc(CN3CCCCC3)cs2)CC1` (stereo not given) yielded an RP-LC retention time of 579 s. In the case of `O=C(NC1CCN(Cc2ccccc2)CC1)c1ccc(I)cc1`, the RP-LC retention time is reported as 727 s. With `CCOc1ccc2nc(NCc3ccco3)sc2c1` the RP-LC retention time was 728 s. In the case of `CN1CCN(C(=O)C(=O)Nc2c3c(nn2-c2cccc(Cl)c2)CSC3)CC1`, the RP-LC retention time is reported as 571 s. `CC(Cc1ccco1)NC(=O)c1cc(-c2ccccn2)nc2ccccc12` (stereo not given) gave an RP-LC retention time of 843 s. `CCc1onc(C)c1C1CCCN1Cc1cc(OC)c(O)c(OC)c1` (stereo not given) showed an RP-LC retention time of 587 s. Work on `COc1ccc(Cc2nc(-c3cccc(-c4ccn[nH]4)c3)no2)cc1` yielded an RP-LC retention time of 911 s. For `O=C(NCCn1ncccc1=O)Nc1ccccc1C(F)(F)F`, the RP-LC retention time was 642 s. In the case of `O=C(NCCCc1ccccc1)C1CCN(C(=O)c2ncn3c2COC(c2ccc(F)cc2)C3)CC1` (stereo not given), the RP-LC retention time is reported as 818 s. For `Cn1nc(-c2nc(C3CC3)no2)c2c1CCN(S(=O)(=O)c1cccs1)C2`, the RP-LC retention time was 861 s. `CC(=O)N(Cc1nn(C)c2c1CN(S(=O)(=O)c1ccccc1F)CC2)c1ccccc1` showed an RP-LC retention time of 779 s. For `CNC(=O)C1CCCN(c2nc3ncn(CC(=O)Nc4ccc(C)cc4C)c(=O)c3s2)C1` (stereo not given), the RP-LC retention time was 646 s. In the case of `CCc1noc(-c2nc(-c3ccc(OC)c(OC)c3)no2)n1`, the RP-LC retention time is reported as 976 s. For `CCc1nc(-c2csc(S(=O)(=O)N3CCCC(C(=O)Nc4cc(C)on4)C3)c2)no1` (stereo not given), the RP-LC retention time was 896 s. Compound `CCOC(=O)c1ccc(NS(=O)(=O)c2cc3n(c2)CCCN(C)C3=O)cc1` has an RP-LC retention time of 711 s. With `CCOC(=O)c1noc2ncnc(N3CCN(Cc4ccccc4)CC3)c12` the RP-LC retention time was 643 s. Work on `Cc1cccc(-c2nc(CN(c3ccccc3)S(=O)(=O)c3cccs3)c(C)o2)c1` yielded an RP-LC retention time of 1240 s. `CCOC(=O)c1ccccc1NC(=O)Cn1c(-c2ccccc2)nc(C)cc1=O` gave an RP-LC retention time of 1330 s. With `CCOC(=O)c1nc(NC(CC)CN(C)Cc2ccccc2)c2c(C)noc2n1` (stereo not given) the RP-LC retention time was 672 s. For `O=C(CCc1c[nH]c2ccccc12)NCCc1c[nH]c2ccc(Cl)cc12`, the RP-LC retention time was 861 s. Work on `Brc1ccc(OCc2nnc3sc(-c4cccnc4)nn23)cc1` yielded an RP-LC retention time of 831 s. With `CCOc1ccc(Nc2c(C(=O)N3CCSCC3)cnc3nc(C)ccc23)cc1` the RP-LC retention time was 642 s. In the case of `COc1ccc2[nH]c(=O)c(CCC(=O)NCCN3CCCCCC3)cc2c1`, the RP-LC retention time is reported as 600 s. In the case of `CCOCC(=O)Nc1ccc(-c2ccc(S(C)(=O)=O)nn2)cc1`, the RP-LC retention time is reported as 645 s. Work on `Cc1ccc(Nc2nc(C(=O)NCCc3cccs3)nc3ccccc23)cc1` yielded an RP-LC retention time of 840 s. Work on `COC(=O)c1ccc(CSc2nnc(NC(=O)C3(c4cccs4)CCCC3)s2)o1` yielded an RP-LC retention time of 978 s. Compound `CC(C)c1noc(C2(NC(=O)c3cnccn3)CCCCC2)n1` has an RP-LC retention time of 894 s. `CN1CCN(CCNC(=O)C2CN(S(=O)(=O)c3ccccc3)CC23CCCCC3)CC1` (stereo not given) gave an RP-LC retention time of 573 s. Compound `Cc1cc(-c2nnc(C3CCC3)o2)c(C)n1CC(=O)NCc1ccc2c(c1)OCO2` has an RP-LC retention time of 816 s. Compound `O=C(C1CC(=O)N(c2cccc(-c3noc(C4CCC4)n3)c2)C1)N1CCN(c2ccccc2)CC1` (stereo not given) has an RP-LC retention time of 1010 s.
